Like-named read-outs stand apart in the source and are kept apart here.
Legend:
[1] = Plasma pharmacokinetics in KM12L4a tumor-bearing mice; format: in vivo; conditions: 300 mg/kg/day p.o.; Day 18; from 3 concentration-time pairs
[2] = Compound 1 and metabolite levels in pooled rat plasma, 2 week toxicology study; format: in vivo; conditions: metabolites estimated by UV; for concentration at 0 h / concentration at 24 h: rat, plasma, po, read-out: Level in Rat Plasma
[3] = Metabolite profile in monkey plasma, multiple oral dose study; format: in vivo; conditions: for level in plasma: compound 1 5 mg/kg BID oral (10 mg/kg/day), Day 1, metabolite estimated by UV
[4] = 30 mg/kg, compound 1 30 mg/kg PO once a day, Day 1
[5] = 100 mg/kg, compound 1 100 mg/kg PO once a day, Day 1
[6] = 100 mg/kg, compound 1 100 mg/kg PO once a day, Day 14

With `CN1CCN(c2ccc3nc(-c4c(N)c5c(F)cccc5[nH]c4=O)[nH]c3c2)CC1` [Compound 1] the AUC [1] was 58400 ng·h/mL, the “% TGI vs. vehicle” value (PC3 human prostate tumor; 100 mpk q 2 days) was 75% and the “% TGI vs. vehicle” value (PC3 human prostate tumor; 100 mpk q 3 days) was 68%. The “% TGI vs. vehicle” value (PC3 human prostate tumor; 100 mpk q 4 days) was 66%.
For `C[N+]1([O-])CCN(c2ccc3nc(-c4c(N)c5c(F)cccc5[nH]c4=O)[nH]c3c2)CC1` [Compound 2, 4-amino-5-fluoro-3-[6-(4-methyl-4-oxidopiperazin-1-yl)-1H-benzimidazol-2-yl]quinolin-2(1H)-one], the concentration at 0 h [2, 4] was 0 ng/mL, the concentration at 0 h [2, 5] was 0 ng/mL and the concentration at 24 h [2, 5] was 137 ng/mL. The concentration at 0 h [2, 6] was 67 ng/mL, the concentration at 24 h [2, 6] was 102 ng/mL and the “detection of metabolite in plasma” value ([3]; monkey, compound 1 5 mg/kg BID oral, day 1 and 14 samples) was “not detected”.
With `Nc1c(-c2nc3ccc(N4CCNCC4)cc3[nH]2)c(=O)[nH]c2cccc(F)c12` [Compound 3, 4-amino-5-fluoro-3-[6-(piperazin-1-yl)-1H-benzimidazol-2-yl]quinolin-2(1H)-one] the “Level in Rat Plasma” value ([2]; compound 1 30 mg/kg PO once a day, Day 1, 1-2 hr) was 14 ng/mL, the “Level in Rat Plasma” value ([2]; compound 1 30 mg/kg PO once a day, Day 1, 4-8 hr) was 48 ng/mL and the “Level in Rat Plasma” value ([2]; compound 1 100 mg/kg PO once a day, Day 14, 1-2 hr) was 17 ng/mL. For the same compound, the “Level in Rat Plasma” value ([2]; compound 1 100 mg/kg PO once a day, Day 14, 4-8 hr) was 19 ng/mL, the concentration at 0 h [2, 4] was 0 ng/mL and the concentration at 0 h [2, 5] was 0 ng/mL. It also gave a concentration at 24 h [2, 5] of 83 ng/mL, a concentration at 0 h [2, 6] of 15 ng/mL and a concentration at 24 h [2, 6] of 10 ng/mL. It also gave a level in plasma ([3]; pooled 0 hr) of 0 ng/mL, a level in plasma ([3]; pooled 1, 2 hr) of 8.5 ng/mL and a level in plasma ([3]; pooled 4, 8 hr) of 31 ng/mL. The level in plasma ([3]; pooled 12, 13, 14, 16, 20, 24 hr) was 10 ng/mL.
